{"source": "patent US20050014751A1", "about": "“Use of n-acyl homoserine lactones for the treatment of insulitis” (priority 2001, published 2005)", "key": {"insulitis in NOD mice": {"tested_on": "insulitis in NOD mice", "test": "Effect of OdDHL on insulitis in NOD mice (slide score)", "format": "in vivo", "details": "3 times a week for four weeks", "method": "To investigate the effect of OdDHL on insulitis or type I diabetes mellitus, mice (NOD) with a genetic predisposition to develop IDDM (insulin dependent diabetes mellitus) were treated with OdDHL. The animals were dosed at […] intraperitoneally from 4 weeks of age, 3 times a week for four weeks. Insulitis was assessed at 14 weeks. In the table a score of 3 or more (DMSO and PBS) represents severe grade insulitis and 1.3 (OdDHL) represents little infiltration (a score of 1 would represent low grade peri-insulitis). The mice were scored according to the method of Beales et al (European Journal of Pharmacology 357(1998) 221-225)."}, "[1]": {"tested_on": "delayed type hypersensitivity response to SRBCs in Balb/c mice", "test": "Murine in vivo DTH response to SRBCs (footweight), oral OdDHL", "details": "Balb/c mice immunised with 5×10^6 SRBCs", "method": "Eight week old, female Balb/c mice were kept on a 12 hour light/dark cycle and fed food and water ad libitum. SRBCs in Alseviers solution (TCS Biologicals, SB069) were washed and centrifuged (800×g for 20 minutes at room temperature) three times with 0.9% NaCl in distilled water. Cells were counted using a haemocytometer. On day 0 animals were immunised intraperitoneally (IP) with 5×10^6 (low dose) or 5×10^8 (high dose) SRBCs in saline. On day 5, animals were challenged with 20 μl SRBCs at 5×10^9/ml in the left hind paw. The contralateral paw was injected with 20 μl saline alone. After 24 hours the animals were sacrificed with a rising concentration of CO2 and bled by cardiac puncture. The hind feet were severed at the ankle joint and weighed.\nAnimals were dosed po from day 0 to day 5 with OdDHL. OdDHL was suspended in 0.25% (wt/vol) cellosize (Boots Co. PLC, Nottingham UK) in distilled water containing 1.5% (vol/vol) Tween 80 (Registered Trade Mark, Sigma) for po dosing at 3, 10, 30 and 100 mg/kg. Animals received 0.1 ml po.\nThis manifests itself as an inflammatory response causing an increase in the size of the foot. Very little antibody is produced. OdDHL at 3, 10, 30 and 100 mg/kg caused a dose dependent increase in footweight of 37%, 60%, 100% and 93% respectively (see FIG. 5). Mice dosed with OdDHL had higher footweights when compared to vehicle dosed animals. The 30 and 100 mg/kg doses (** on graph) are significant as determined by Dunnett's multiple comparison's test after one-way analysis of variance (p<0.01). This assay is considered by the pharmaceutical industry to be […] dependent, indicating the effect of compound treatment on contra-regulating T-helper 1 lymphocytes."}, "human PBMC": {"tested_on": "human PBMC", "test": "ConA mitogen-stimulated proliferation of human PBMC", "format": "cell-based", "details": "ConA 1 μg/ml, 100,000 PBMC", "method": "Blood specimens were obtained with consent from healthy human volunteers. Human peripheral blood mononuclear cells (PBMC) were isolated from heparinised whole blood by buoyant density centrifugation over Histopaque 1077 (Sigma, Poole, UK) at 600 g for 20 minutes. PBMC harvested from the ‘buffy’ layers were washed twice with RPMI 1640 medium and resuspended in CTCM. HSL compounds were tested at similar dilutions as for murine splenocytes in 200 μl of CTCM, containing 1 μg/ml of ConA and 100,000 PBMC. Human PBMC were incubated for 48 h at 37° C. in 5% CO2-air, followed by pulsing with 0.25 μCi [^3H]-thymidine (see above). After a further incubation of 24 h cells were harvested onto fibreglass filters and then counted in the presence of MicroScint-O with the Packard TopCount.\nConcanavalin induced cell proliferation of human peripheral blood mononuclear cells (PBMC) was tracked, as described in I above, by a measurement of counts per minute using the scintillation counter. The inhibitory effect of an HSL compound being tested on cell proliferation was indicated by a reduction in counts per minute. […]\nIn the cell culture assays the number of cells used (mouse splenocytes and human PBMC) was initially optimised to 100,000 cells per well. The optimal dose of ConA of 1 μg/ml used in the cell proliferation assays was determined from ConA titration curves. […]"}, "NOD mice": {"tested_on": "NOD mice", "test": "Comparative immune toxicity assessment in NOD mice", "format": "in vivo", "method": "The overt immune toxicity of OdDHL was investigated using the dose regime described above in Example 5 for the alleviation of insulitis or diabetes in NOD mice. […] Splenocytes from the mice were taken along the time course of treatment (3 times a week for 4 weeks) and were stained with anti-CD-3 (pan T-cell), anti-CD4 (helper T-cell), anti-CD8 (cytotoxic T-cell) and anti-CD19 (B cell) antibodies for 30 minutes on ice. Cells were washed twice in PBS/BSA and then fixed in 0.5% formaldehyde. Cell phenotypes were analysed on BD FACScan."}, "diabetes in NOD mice": {"tested_on": "diabetes in NOD mice", "test": "In vivo effects of CSA, anti-TNFα and OdDHL in the diabetes model", "details": "OdDHL 30 mg/kg, 3 times per week for 4 weeks", "method": "Dose regimes of Cyclosporin A, anti-TNFα antibody and OdDHL were compared in the diabetes model. NOD mice were dosed at 25 mg/kg on alternate days for 160 days following the methodology of Mori et al (Diabetologia (1986) 29: 244-247), the content of which is incorporated herein by reference, for the investigation of CSA, and Anti TNF at 12 mg per individual, 0.5 mg three times a week for 8 weeks in accordance with the method of Suk et al (J. Immunology (2001) 166: 4481-4489), the content of which is incorporated herein by reference, was used for TNFα. OdDHL was dosed at 30 mg/kg, 3 times per week for 4 weeks as above."}, "[2]": {"test": "Comparative assay performed in vivo (OdDHL vs CSA and dexamethasone)", "details": "compared with CSA and dexamethasone", "from_the_text": "From this it is believed that a similar result will be achieved for insulitis."}, "murine spleen cells": {"tested_on": "murine spleen cells", "details": "Infection and Immunity, vol.66, no.1, January 1998; cited from earlier work"}, "TNF-α production": {"tested_on": "TNF-α production", "details": "Infection and Immunity, vol.66, no.1, January 1998; cited from earlier work"}}, "note": "“And” between values parts separate entries of the source, which are not always exact repeats. Equal entries are not always repeated."}
{"smiles": "CCCCCCCCCC(=O)CC(=O)N[C@H]1CCOC1=O", "note": "[OdDHL, N-(3-oxododecanoyl)-L-homoserine Lactone]", "values": [{"measurement": "Slide Score (insulitis), individual animal", "setting": "insulitis in NOD mice; 100 mg/kg intraperitoneally from 4 weeks of age, insulitis assessed at 14 weeks, one value per animal, 100 mg/kg", "result": "1.936 and 1.478 and 1.154 and 1.000 and 1.418"}, {"measurement": "Slide Score (insulitis), Group Total", "setting": "insulitis in NOD mice; 100 mg/kg intraperitoneally, assessed at 14 weeks", "result": 6.986}, {"measurement": "Slide Score (insulitis), Group Mean", "setting": "insulitis in NOD mice; 100 mg/kg intraperitoneally, assessed at 14 weeks, score of 3 or more = severe grade insulitis, 1 = low grade peri-insulitis, 100 mg/kg", "result": 1.397}, {"measurement": "increase in footweight", "setting": "[1]; 3 mg/kg po day 0 to day 5, vs vehicle", "result": 37, "unit": "%"}, {"measurement": "increase in footweight", "setting": "[1]; 10 mg/kg po day 0 to day 5, vs vehicle", "result": 60, "unit": "%"}, {"measurement": "increase in footweight", "setting": "[1]; 30 mg/kg po day 0 to day 5, vs vehicle, p<0.01", "result": 100, "unit": "%"}, {"measurement": "increase in footweight", "setting": "[1]; 100 mg/kg po day 0 to day 5, vs vehicle, p<0.01", "result": 93, "unit": "%"}, {"measurement": "inhibition of proliferation of human PBMC ([3H]-thymidine cpm, FIG. 7)", "setting": "human PBMC", "result": "inhibited proliferation"}, {"measurement": "overt immune toxicity (CD3, CD4, CD8, CD19 splenocyte populations, FACScan, FIG. 12)", "setting": "NOD mice; 3 times a week for 4 weeks", "result": "lack of overt immune toxicology"}, {"measurement": "body weight gain of treated mice", "setting": "NOD mice; dose regime of Example 5, vs non-treated littermates", "result": "gained weight identically to their non-treated littermates"}, {"measurement": "in vivo action compared to reported data of Mori (CSA) and Suk (anti-TNF)", "setting": "diabetes in NOD mice", "result": "more effective in vivo action than in vitro"}, {"measurement": "comparative performance in vivo", "setting": "[2]", "result": "performed better than CSA and dexamethasone"}, {"measurement": "inhibition of concanavalin A mitogen stimulated proliferation of murine spleen cells", "setting": "murine spleen cells", "result": "inhibiting"}, {"measurement": "inhibition of TNF-α production by LPS-stimulated adherent murine peritoneal macrophages", "setting": "TNF-α production", "result": "inhibiting"}]}
